Data as given in patent publication US7820636B2, “Sugar intake promoters” (Otsuka Pharmaceutical Co., Ltd., priority 2001, dated 2010).

System: human epidermal keratinocytes
Assay: 3H-2-deoxyglucose uptake in epidermal keratinocytes
Format: cell-based
Conditions: for promotion effect relative to that of adenosine at the same concentration: p<0.05; for action of promoting epidermal keratinocytic glucose uptake (qualitative): FIG. 1
Experimental: The influence of purine base on glucose uptake in epidermal keratinocytes was examined using adenosine 5′-phosphate-2Na (AMP-2Na), adenosine and inosine as test compounds. As a control, the experiment was carried out in a similar manner without using the test compound.
Human epidermal keratinocyates (normal human neonatal foreskin epidermal keratinocytes, “Epidercell NHEK(F)”, product of Kurabo industries, Ltd.) were initially cultured in a 10-cm petri dish and stored in a frozen state until use. At the time of use, the cryopreserved cells were cultured on a 24-well plate for about 6 to 7 days and subjected to this experiment when the cells were 70-80% confluent.
A glucose-free medium was prepared by adding to a serum-free medium for the growth of epidermal keratinocytes (“HuMedia-KG2”, special ordered medium, product of Kurabo Industries, Ltd.) 1 ml of calcium solution and 0.1 ml of phenol red packaged with the medium product. Bovine serum albumin (BSA) treated with activated carbon to remove impurities was added to the medium to become a concentration of 1% and the medium was adjusted to pH 7.4 with NaOH.
1 ml of 10 mM 2-deoxyglucose, 60 μl of 250 μCi/250 μl ^3H-2-deoxyglucose and 940 μl of 1% BSA/glucose-free medium (pH 7.4) were mixed.
Epidermal keratinocytes cultured in a 24-well plate were washed with PBS(−) (Ca^2+ and Mg^2+ free phosphate buffered saline) three times. After addition of serum-free medium for the growth of epidermal keratinocytes (“HuMedia-KG2”, special ordered medium, product of Kurabo Industries, Ltd.), the cells were cultured for 2 hours and then washed with PBS(−) three times. After addition of 1 ml of 1% BSA/glucose-free medium (pH 7.4) in which the test compound was dissolved, the cells were cultured for 30 minutes and then 20 μl of ^3H-2-deoxyglucose solution was added per ml of the medium. The cells were allowed to stand for 10 minutes and then washed with ice-cooled glucose-containing PBS(−) three times. After addition of 0.5 ml of 0.1N NaOH containing 0.1% SDS, the cells ware allowed to stand in a static condition for at least 2 hours to produce a cell lysate solution. 0.5 ml of 0.11N HCl containing 0.1% SDS was added to acidify the cell lysis solution. 80 μl of the cell lysate solution was used for protein assay (“DC Protein Assay”, product of Bio-Rad), and 750 μl of the same was placed into a glass bottle. 20 ml of a liquid scintillation cocktail (ACS-II, product of Amersham) was added. After gently stirring the mixture, radioactivity was assayed using the liquid scintillation counter. The radioactivity per unit amount of protein was determined from the measured radioactivity and the amount of ^3H-2-deoxyglucose uptake (H-DPM (μg)/μg protein) was calculated by subtracting the radioactivity due to non-specific 3H-2-deoxyglucose uptake.
The above experiment was carried out twice and the mean averages were calculated. For comparison with the control, each value was converted to a ratio to the control value set as 1. […] In FIG. 1, the abscissa designates the concentration (log M) of each purine base (AMP-2Na, adenosine, inosine), and the ordinate designates the ratio of cellular 2-deoxyglucose uptake amount (H-DPM (μg)/μg protein) relative to the control set as 1.

In the case of `Nc1ncnc2c1ncn2[C@@H]1O[C@H](COP(=O)([O-])[O-])[C@@H](O)[C@H]1O.[Na+].[Na+]` [AMP-2Na, adenosine 5′-phosphate-2Na], the “promotion of glucose uptake relative to control (ratio, control = 1)” value (10^-5 M, first experiment) is reported as “about 1.61 times”, the “promotion of glucose uptake relative to control (ratio, control = 1)” value (10^-5 M, second experiment) is reported as “about 1.43 times” and the “promotion of glucose uptake relative to control (ratio, control = 1)” value (10^-6 M, first experiment) is reported as “about 1.48 times”. The “promotion effect relative to that of adenosine at the same concentration” value (10^-6 M, first experiment) was “about 1.16 times”, the “promotion of glucose uptake relative to control (ratio, control = 1)” value (10^-6 M, second experiment) was “about 1.48 times” and the “promotion effect relative to that of adenosine at the same concentration” value (10^-6 M, second experiment) was “about 1.32 times”. The “glucose uptake promotion compared with inosine (qualitative)” value (low concentration (10^-7 M)) was “promotes glucose uptake more effectively than inosine”.

In the case of `Nc1ncnc2c1ncn2[C@@H]1O[C@H](CO)[C@@H](O)[C@H]1O` [adenosine], the “action of promoting epidermal keratinocytic glucose uptake (qualitative)” value is reported as “have the action of promoting epidermal keratinocytic glucose uptake”.

`OC[C@H]1O[C@@H](n2cnc3c(O)ncnc32)[C@H](O)[C@@H]1O` [inosine] was tested, and the “action of promoting epidermal keratinocytic glucose uptake (qualitative)” value was “have the action of promoting epidermal keratinocytic glucose uptake”.
